The source of these data is patent US20090215796A1, “Compositions, Kits and Methods for a Titration Schedule for Pardoprunox Compounds” (Solvay Pharmaceuticals B.V., priority 2008, published 2009).

One data set has as its system human subjects. In words: Clinical investigations on pardoprunox hydrochloride (general tolerability). It is filed as in vivo.
The subject of another data set is subjects with early PD. In words: Double-blind, placebo-controlled proof of principle study S308.2.004, pardoprunox monotherapy. Format: in vivo, human. As to the method:
In a double-blind, placebo-controlled proof of principle (PoP) study (S308.2.004), the effects of pardoprunox on efficacy, safety and tolerability as monotherapy in early PD were investigated including 138 randomized and treated subjects. Following a fixed-flexible titration period (average length of 24 days), subjects were kept on maintenance dose levels for three weeks (9, 12, 15, 18, 24, 30, 36 or 45 mg/day). Study medication was taken orally three times daily (tid), in the morning, at noon and in the evening, with any missed doses not taken subsequently.
The dose of pardoprunox was progressively titrated from 0.3 mg/day to 9 mg/day according to a predefined schedule within 10 days, and to 30 mg/day within 20 days, by giving single dose unit or a combination of single dose unit. Daily doses were given over the day in the form of three dosage units. Up to the dose of 30 mg/day the titration was based on tolerability only, meaning that every next day (until step 10) or every other day (step 10-14) the dose was to be increased with one step if well-tolerated by the patient (see Table 3). […] From that moment, the patient had to stay on that lower dose level for 2 full days (at least 6 administrations) before trying the higher level again. The first administration of the higher dose had to be done in the morning. For a given titration step only one subsequent second attempt was allowed to reach the higher dose level. In total, three dose adjustments (on different titration steps) were allowed. If patients still could not reach a certain dose level after two sequential attempts and that dose level was below the minimum required dose level of 9 mg/day, they were not allowed to enter the maintenance phase. If a dose level of at least 9 mg/day has already been reached, they were allowed to maintain that dose level for the entire maintenance phase. Patients who reached the 30 mg/day dose could continue to escalate to 45 mg if tolerability allowed, and if further efficacy was expected. […]

For data set [1], the system named is subjects with PD characterized by motor fluctuations. The data set is described as follows: Safety study S308.3.005, two titration schedules of pardoprunox as adjunctive treatment to L-dopa. Format: in vivo, human. On the procedure: In this study, primarily a safety study, 62 subjects with PD characterized by motor fluctuations were randomized to one of three different treatment arms, consisting of two pardoprunox treatment arms (total daily dose 0.3-42 mg three times daily [tid]; groups 1 [25 subjects] and 2 [26 subjects]) and one placebo arm [11 subjects]). The study included a seven-week ascending dose period of pardoprunox as adjunctive treatment to L-dopa. The effect of two different titration schedules was investigated on the safety and tolerability profile, as well as the need and time required for L-dopa dose and/or regimen adjustments (see Table 4). The difference between the two pardoprunox groups was in titration steps taken to achieve at the same time the main study dose levels, namely Group 1—weekly, larger dose increments versus Group 2—with every 3 and 4-days smaller dose steps to the same ‘end of week’ pardoprunox main doses. In the group with the more gradual titration more than 92% of the subjects (24 out of 26) reached doses of 18 mg/day or higher, and 65% (17 out of 26 subjects) reached the highest dose level of 42 mg/day.

The subject of the next data set is early PD patients. In words: First pivotal study S308.3.001, fixed and flexible dose arms versus placebo. Format: in vivo, human. On the procedure: In the first pivotal study in early PD patients (study S308.3.001), the efficacy and safety of two fixed dose arms of pardoprunox (6 mg/day [n=115; Group 1] and 12 mg/day [n=118; Group 2]), and a flexible dose arm (12-42 mg/day [n=116; Group 3]) was compared to placebo (n=119) (see Table 6 for titration schedules used).

The target in another data set is dopamine D2 receptor (Homo sapiens, UniProt P14416). The following applies: cited from earlier work.
Sequence of dopamine D2 receptor (P14416 whole entry): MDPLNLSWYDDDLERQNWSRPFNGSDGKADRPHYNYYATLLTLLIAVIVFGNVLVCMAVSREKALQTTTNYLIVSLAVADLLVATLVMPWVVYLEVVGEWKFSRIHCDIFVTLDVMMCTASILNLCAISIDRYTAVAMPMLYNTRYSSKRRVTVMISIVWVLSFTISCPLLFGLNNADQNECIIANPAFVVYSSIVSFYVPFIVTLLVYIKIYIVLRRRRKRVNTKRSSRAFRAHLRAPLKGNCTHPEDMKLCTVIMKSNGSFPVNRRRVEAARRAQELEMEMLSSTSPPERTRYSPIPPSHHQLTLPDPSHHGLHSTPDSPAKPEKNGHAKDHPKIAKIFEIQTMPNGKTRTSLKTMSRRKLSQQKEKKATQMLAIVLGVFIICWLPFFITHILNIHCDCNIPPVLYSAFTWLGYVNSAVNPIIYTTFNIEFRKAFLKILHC
The target in a further data set is dopamine D3 receptor (Homo sapiens, UniProt P35462). To be noted: cited from earlier work.
Sequence of dopamine D3 receptor (P35462 whole entry): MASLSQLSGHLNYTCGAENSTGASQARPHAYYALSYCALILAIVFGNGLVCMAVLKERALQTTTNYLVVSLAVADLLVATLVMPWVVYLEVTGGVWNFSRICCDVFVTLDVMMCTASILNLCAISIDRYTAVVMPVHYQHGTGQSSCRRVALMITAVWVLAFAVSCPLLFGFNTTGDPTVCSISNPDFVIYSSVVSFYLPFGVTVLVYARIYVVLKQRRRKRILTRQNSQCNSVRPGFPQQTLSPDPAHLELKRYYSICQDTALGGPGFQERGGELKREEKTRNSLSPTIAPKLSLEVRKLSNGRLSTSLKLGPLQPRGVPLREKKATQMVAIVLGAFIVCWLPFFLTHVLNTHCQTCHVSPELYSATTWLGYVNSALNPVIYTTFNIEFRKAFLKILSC
A further data set concerns the target T1, 5-HT1A (Homo sapiens, UniProt P08908).
T1 sequence (P08908 1-422): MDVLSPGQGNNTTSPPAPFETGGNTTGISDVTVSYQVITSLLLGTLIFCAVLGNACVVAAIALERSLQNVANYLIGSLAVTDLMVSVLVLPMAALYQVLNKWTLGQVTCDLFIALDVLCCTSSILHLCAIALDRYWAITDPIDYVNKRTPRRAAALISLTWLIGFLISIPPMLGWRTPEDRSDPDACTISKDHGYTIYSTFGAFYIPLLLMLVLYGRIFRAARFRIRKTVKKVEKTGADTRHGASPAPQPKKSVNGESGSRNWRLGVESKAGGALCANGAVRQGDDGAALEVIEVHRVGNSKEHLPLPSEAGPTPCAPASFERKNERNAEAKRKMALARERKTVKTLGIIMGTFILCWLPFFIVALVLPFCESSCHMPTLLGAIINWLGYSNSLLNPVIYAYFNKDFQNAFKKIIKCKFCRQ
To be noted: cited from earlier work.

The next data set has as its system animal models. The following applies: cited from earlier work.

Molecules are shown by their SMILES. A value given as a limit tells only on which side of the number the result lay.

Consider `CN1CCN(c2cccc3[nH]c(=O)oc23)CC1.Cl` [pardoprunox hydrochloride, 7-(4-methyl)-1-piperazinyl-2(3H)-benzoxazolone hydrochloride], for which the tolerability result in the data set on human subjects (clinical investigations) is “well tolerated”.

For the molecule `CN1CCN(c2cccc3[nH]c(=O)oc23)CC1` [pardoprunox, 7-(4-methyl)-1-piperazinyl-2(3H)-benzoxazolone], in the data set with subjects with early PD (explorative evaluation, dose/effect plot), the “efficacy between subgroups treated with 9-15 mg/day, 18-30 mg/day and >30-45 mg/day” value is on record as “did not provide any clear differences in efficacy”. The “subjects who reached the highest dose level of 45 mg/day” value in the data set with subjects with early PD (flexible titration based on tolerability, tid oral) is recorded as “approximately 16%”. Besides, the “subjects treated with pardoprunox doses of ≧30 mg/day” value in the data set on subjects with early PD (flexible titration based on tolerability, tid oral, maintenance 9-45 mg/day) was “Approximately 40%”. Also, the “doses or titration steps not tolerated (defined as causing more than 20% drop outs)” value in data set [1] (0.3-42 mg/day tid) is on record as “no particular doses or titration steps that could not be tolerated”. Moreover, in data set [1] (between 18 and 30 mg/day, group with smaller dose increments (four subjects)), the “subjects who terminated the study due to treatment related Adverse Effects” value is 15%. The drop-out rate entry in data set [1] (group with the larger, weekly dose increments (Group 1) compared with Group 2 and placebo, FIG. 1) was “much higher drop-out rate”. For the same molecule, the “subjects who reached the highest dose level of 42 mg/day” value in data set [1] (group with the more gradual titration (Group 2), 17 out of 26 subjects) turned out to be 65%. For the same molecule, the “drop out rate due to treatment related Adverse Effects” value in data set [1] (up to the 18 mg/day dose, group with smaller dose increments) came to 4%. For the same molecule, the tolerability result is on record as “better than that of the higher dose groups” with early PD patients (6 mg/day fixed dose group versus higher dose groups) and “relatively well tolerated” in the data set with human subjects (healthy human subjects). Further, in the data set with early PD patients (all active treatment arms: 6 mg/day, 12 mg/day, 12-42 mg/day), the “primary outcome measure UPDRS motor score versus placebo” value is given as “statistically superior to placebo”. For the same molecule, the minimum effective dose with early PD patients (early PD patient population, conclusion from study) was less than 12 mg/day. In addition, the “agonist activity at dopamine D2 receptor” value at dopamine D2 receptor was “partial dopamine D2 and D3 receptor agonist”. For the same molecule, at dopamine D3 receptor, the “agonist activity at dopamine D3 receptor” value is “partial dopamine D2 and D3 receptor agonist”. Besides, the “agonist activity at 5-HT1A” value at 5-HT1A is “full 5-HT1A agonist activity”. For the same molecule, the anti-PD effect result in the data set on animal models is “marked and long-lasting anti-PD effect”. Further, in the data set on animal models, the “antidepressant and anxiolytic efficacy” value was “evidence of antidepressant and anxiolytic efficacy”.
